# Columns and labels:
# [1] = test system: Panel of Isogenic and Clinical Strains Expressing β-Lactamases; assay: Standard BLI potentiation MIC assay, whole panel; format: cell-based
# Description: (§1) The experimental protocol was performed according to Clinical and Laboratory Standards Institute (CLSI) guidelines with modifications as described below (CLSI guidelines can be derived from the CLSI document M07-A9 published in January 2012: “Methods for Dilution Antimicrobial Susceptibility Tests for Bacteria That Grow Aerobically; Approved Standard-Ninth Edition”).
# To prepare for MIC testing, frozen glycerol stocks of clinical isolates (Klebsiella pneumoniae, Eschericia coli, Enterobacter spp, Citrobacter spp, or Pseudomonas aeruginosa) were used to streak for isolated colonies on rich, non-selective, tryptic soy agar containing 5% sheep's blood (TSAB). Frozen glycerol stocks of laboratory engineered, isogenic E. coli strains, which contain cloned β-lactamase expressing plasmids were used to streak for isolated colonies on rich, selective LB agar supplemented with 25 μg/mL tetracycline to maintain the plasmid. All strains were incubated at 37° C. for 18-24 hrs. […]
# Plates were incubated for 18-20 hours at 37° C. with aeration (200 rpm). Following incubation, growth was confirmed visually placing plates over a viewing apparatus (stand with a mirror underneath) and then OD600 was measured using a SpectraMax 340PC384 plate reader (Molecular Devices, Sunnyvale, Calif.). Growth was defined as turbidity that could be detected with the naked eye or achieving minimum OD600 of 0.1. […]
# [2] = test system: Eco.2845 (OXA-15, isogenic); assay: Standard BLI potentiation MIC assay; format: cell-based, Eschericia coli; details: read-out: MIC of β-lactam with BLI
# Description: as §1
# (§2) To prepare for MIC testing, frozen glycerol stocks of clinical isolates (Klebsiella pneumoniae, Eschericia coli, Enterobacter spp, Citrobacter spp, or Pseudomonas aeruginosa) were used to streak for isolated colonies on rich, non-selective, tryptic soy agar containing 5% sheep's blood (TSAB). Frozen glycerol stocks of laboratory engineered, isogenic E. coli strains, which contain cloned β-lactamase expressing plasmids were used to streak for isolated colonies on rich, selective LB agar supplemented with 25 μg/mL tetracycline to maintain the plasmid. All strains were incubated at 37° C. for 18-24 hrs.
# (§3) On the day of testing, primary cultures were started by scraping off 5-10 colonies from the TSAB plates containing clinical strains or the tetracycline supplemented LB plates containing engineered strains. The clinical strain material was suspended in ˜5 mL of cation adjusted Mueller Hinton Broth (CAMHB) in 14 mL culture tubes. The engineered strain material was suspended in CAMHB (supplemented with 25 μg/mL tetracycline) in 14 mL culture tubes. All strains were incubated at 37° C. with aeration (200 rpm) for ˜2 hrs until the optical density at 600 nm (OD600) was ≧0.1.
# (§4) The two compound components of the assay were each diluted in CAMHB and added to the 96-well broth microdilution assay plates. 50 μL of the β-lactam was added to each well of the assay plate in 2-fold dilutions with final concentrations ranging from 128 to 0.13 μg/mL. 25 μL of the BLI compound was added to all wells in the broth microdilution plates at a final concentration of 4 μg/mL. Inoculum cultures were prepared by standardizing the primary cultures to OD600=0.1 and then adding 20 μL of the adjusted primary culture per 1 mL CAMHB for clinical strains or CAMHB (supplemented with tetracycline at 100 μg/mL) for engineered strains, so that the final inoculum density was ˜10^5 colony forming units per milliliter. Diluted inoculum cultures were used to inoculate 25 μL per well in 96-well broth microdilution assay plates. The final volume of each well was 100 μL and contained a β-lactam at different concentrations, a BLlcompound at 4 μg/mL concentration, the bacterial culture at an OD600 of approximately 0.001 and when necessary tetracycline at 25 μg/mL.
# (§5) Plates were incubated for 18-20 hours at 37° C. with aeration (200 rpm). Following incubation, growth was confirmed visually placing plates over a viewing apparatus (stand with a mirror underneath) and then OD600 was measured using a SpectraMax 340PC384 plate reader (Molecular Devices, Sunnyvale, Calif.). Growth was defined as turbidity that could be detected with the naked eye or achieving minimum OD600 of 0.1. MIC values were defined as the lowest concentration producing no visible turbidity.
# [3] = test system: Eco.2806 (KPC-2, isogenic); assay: Standard BLI potentiation MIC assay; format: cell-based, Eschericia coli; details: read-out: MIC of β-lactam with BLI
# Description: as §1, §2, §3, §4, §5
# [4] = test system: Eco.2843 (DHA-1, isogenic); assay: Standard BLI potentiation MIC assay; format: cell-based, Eschericia coli; details: read-out: MIC of β-lactam with BLI
# Description: as §1, §2, §3, §4, §5
# [5] = test system: Eco.2840 (KPC-4, isogenic); assay: Standard BLI potentiation MIC assay; format: cell-based, Eschericia coli; details: read-out: MIC of β-lactam with BLI
# Description: as §1, §2, §3, §4, §5
# [6] = test system: Eco.2902 (Aba-ADC-33, isogenic); assay: Standard BLI potentiation MIC assay; format: cell-based, Eschericia coli; details: read-out: MIC of β-lactam with BLI
# Description: as §1, §2, §3, §4, §5
# [7] = test system: Eco.2491 (CMY-2, clinical); assay: Standard BLI potentiation MIC assay; format: cell-based, Eschericia coli; details: read-out: MIC of β-lactam with BLI
# Description: as §1, §2, §3, §4, §5
# [8] = test system: Eco.2711 (KPC, clinical); assay: Standard BLI potentiation MIC assay; format: cell-based, Eschericia coli; details: read-out: MIC of β-lactam with BLI
# Description: as §1, §2, §3, §4, §5
# [9] = test system: Eco.2781 (KPC-2, TEM+, clinical); assay: Standard BLI potentiation MIC assay; format: cell-based, Eschericia coli; details: read-out: MIC of β-lactam with BLI
# Description: as §1, §2, §3, §4, §5
# [10] = test system: Eco isogenic, β-Lactamase none; assay: Synergy MIC (sMIC) assay; format: cell-based, E. coli; details: β-Lactam none
# Description: The synergy MIC (sMIC) assay determines the concentration of the BLI required to potentiate the activity of a fixed concentration of a β-lactam antibiotic against β-lactamase producing bacterial strains. The experimental protocol was performed according to Clinical and Laboratory Standards Institute (CLSI) guidelines with modifications as described below (CLSI guidelines can be derived from the CLSI document M07-A9 published in January 2012: “Methods for Dilution Antimicrobial Susceptibility Tests for Bacteria That Grow Aerobically; Approved Standard-Ninth Edition”). […]
# as §5, with “sMIC” for “MIC”, “turbidity. […]” for “turbidity.”
smiles,measurement,setting,value
"O=C1N2C[C@@H](CC[C@H]2c2nnco2)N1OS(=O)(=O)[O-].[Na+] [Hydrate 1, sodium (2S,5R)-2-(1,3,4-oxadiazol-2-yl)-7-oxo-1,6-diazabicyclo[3.2.1]octan-6-yl sulfate]",MIC50,[1],1 to 2 µg/mL
same,MIC90,[1],1 to 2 µg/mL
same,MIC,[2],1 to 2 µg/mL
same,MIC,[3],0.25 to 0.5 µg/mL
same,MIC,[4],0.25 to 0.5 µg/mL
same,MIC,[5],1 to 2 µg/mL
same,MIC,[6],1 to 2 µg/mL
same,MIC,[7],0.25 to 0.5 µg/mL
same,MIC,[8],0.25 to 0.5 µg/mL
same,MIC,[9],0.25 to 0.5 µg/mL
same,sMIC,[10],F (F = ≧128 μg/mL)

# Source: patent publication US9120795B2, “Crystalline form of a β-lactamase inhibitor” (Cubist Pharmaceuticals, Inc., priority 2013, dated 2015)
